The values below come from ChEMBL document CHEMBL1201862, “PubChem BioAssay data set” (2004).

As a reminder, the IC50 is the concentration that gives 50% inhibition. By Ki is commonly meant the dissociation constant of the complex between target and ligand, obtained from inhibition or displacement.

Each structure is given as a SMILES string. Activity calls are given as the source filed them. Where only a bound is given, the exact number is not on record here.

Holding throughout (format): functional
Assay [1] has as its target T1, Apoptotic protease-activating factor 1 (Homo sapiens, UniProt O14727).
T1 sequence (O14727 whole entry): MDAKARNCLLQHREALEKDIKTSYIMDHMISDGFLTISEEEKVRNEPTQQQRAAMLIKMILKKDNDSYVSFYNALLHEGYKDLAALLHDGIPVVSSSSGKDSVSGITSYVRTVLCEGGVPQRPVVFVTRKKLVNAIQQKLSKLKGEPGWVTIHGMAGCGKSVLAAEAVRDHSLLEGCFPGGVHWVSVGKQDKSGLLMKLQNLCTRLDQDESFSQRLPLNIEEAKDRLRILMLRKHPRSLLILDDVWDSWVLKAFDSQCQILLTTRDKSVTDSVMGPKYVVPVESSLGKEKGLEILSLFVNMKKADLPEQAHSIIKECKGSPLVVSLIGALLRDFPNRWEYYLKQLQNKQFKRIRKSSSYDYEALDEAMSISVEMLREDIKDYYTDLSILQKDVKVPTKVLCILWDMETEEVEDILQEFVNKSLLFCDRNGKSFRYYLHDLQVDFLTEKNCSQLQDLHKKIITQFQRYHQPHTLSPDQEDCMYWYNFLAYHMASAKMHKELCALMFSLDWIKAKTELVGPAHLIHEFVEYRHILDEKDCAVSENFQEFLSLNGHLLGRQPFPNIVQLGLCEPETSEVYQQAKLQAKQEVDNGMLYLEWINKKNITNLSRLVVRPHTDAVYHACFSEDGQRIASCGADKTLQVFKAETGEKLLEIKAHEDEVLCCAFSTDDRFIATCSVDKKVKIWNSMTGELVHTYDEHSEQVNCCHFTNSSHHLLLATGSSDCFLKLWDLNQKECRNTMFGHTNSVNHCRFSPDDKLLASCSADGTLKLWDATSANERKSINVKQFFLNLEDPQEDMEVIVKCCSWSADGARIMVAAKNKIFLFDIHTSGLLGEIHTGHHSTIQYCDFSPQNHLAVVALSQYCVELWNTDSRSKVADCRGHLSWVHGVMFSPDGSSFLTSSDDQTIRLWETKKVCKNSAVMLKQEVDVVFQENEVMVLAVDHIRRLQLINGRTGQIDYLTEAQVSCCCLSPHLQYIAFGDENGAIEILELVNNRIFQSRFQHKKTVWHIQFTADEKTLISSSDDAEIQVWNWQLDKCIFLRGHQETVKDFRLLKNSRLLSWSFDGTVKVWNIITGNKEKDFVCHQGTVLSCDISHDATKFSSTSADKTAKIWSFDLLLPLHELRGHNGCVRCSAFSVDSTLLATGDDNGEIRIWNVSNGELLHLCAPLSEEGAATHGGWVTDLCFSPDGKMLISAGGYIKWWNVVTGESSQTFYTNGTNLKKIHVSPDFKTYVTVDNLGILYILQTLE

The target in assay [2] is T2, Sentrin-specific protease 8 (Homo sapiens, UniProt Q96LD8).
T2 sequence (Q96LD8 whole entry): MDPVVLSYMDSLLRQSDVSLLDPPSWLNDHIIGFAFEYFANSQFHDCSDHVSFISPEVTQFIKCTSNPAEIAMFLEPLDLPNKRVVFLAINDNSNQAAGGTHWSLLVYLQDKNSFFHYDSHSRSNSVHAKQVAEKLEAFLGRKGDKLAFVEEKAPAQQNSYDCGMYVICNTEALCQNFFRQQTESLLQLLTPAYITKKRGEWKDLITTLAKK
Briefly: inhibition of human SENP8 cleavage activity – biochemical, luminescence, SAR follow-up (AID 504501).

Assay [3] concerns the target Prothrombin (Homo sapiens, UniProt P00734). In words: Thrombin 1536 HTS Dose Response Confirmation. [Related pubchem assays: 1046 (Thrombin 1536 HTS; hits were confirmed in this assay)].
In assay [4] the target is cGMP-dependent protein kinase 1 (Homo sapiens, UniProt Q13976).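 Further: value from a kinome panel screen with PRKG1 as the panel member.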
cGMP-dependent protein kinase 1, sequence (Q13976 whole entry, canonical isoform): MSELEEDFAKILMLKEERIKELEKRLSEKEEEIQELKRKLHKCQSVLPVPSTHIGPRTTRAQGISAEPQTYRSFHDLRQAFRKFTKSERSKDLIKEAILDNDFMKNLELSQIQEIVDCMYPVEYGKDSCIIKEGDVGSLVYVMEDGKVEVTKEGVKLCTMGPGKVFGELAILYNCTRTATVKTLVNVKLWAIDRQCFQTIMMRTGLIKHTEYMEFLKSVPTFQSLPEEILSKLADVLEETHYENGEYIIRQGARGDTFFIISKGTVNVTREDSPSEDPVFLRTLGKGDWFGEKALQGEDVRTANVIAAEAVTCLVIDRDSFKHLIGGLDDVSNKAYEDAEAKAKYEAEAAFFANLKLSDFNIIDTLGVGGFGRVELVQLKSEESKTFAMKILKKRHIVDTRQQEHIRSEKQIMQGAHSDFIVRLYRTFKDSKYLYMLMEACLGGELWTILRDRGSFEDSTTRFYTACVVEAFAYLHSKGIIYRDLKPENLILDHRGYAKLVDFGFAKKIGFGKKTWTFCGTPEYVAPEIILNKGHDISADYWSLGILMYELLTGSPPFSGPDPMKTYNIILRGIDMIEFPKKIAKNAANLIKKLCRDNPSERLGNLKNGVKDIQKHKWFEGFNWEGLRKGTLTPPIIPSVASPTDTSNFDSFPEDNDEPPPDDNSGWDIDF
Assay [5] has as its target Phosphorylase b kinase gamma catalytic chain, liver/testis isoform (Homo sapiens, UniProt P15735).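 Further: PHKG2 measured as one member of a kinome-wide kinase panel.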
The target in assay [6] is Tyrosine-protein kinase BTK (Homo sapiens, UniProt Q06187).
Assay [7] concerns the target Serine/threonine-protein kinase PAK 4 (Homo sapiens, UniProt O96013).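 Further: value obtained within a kinome profiling panel in which PAK4 was one of the panel members.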
Assay [8] addresses Calcium/calmodulin-dependent protein kinase type II subunit delta (Homo sapiens, UniProt Q13557).
Assay [9] addresses MAP/microtubule affinity-regulating kinase 3 (Homo sapiens, UniProt P27448).
Assay [10] deals with High affinity nerve growth factor receptor (Homo sapiens, UniProt P04629).
The target in assay [11] is Insulin receptor (Homo sapiens, UniProt P06213).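 Further: insulin receptor kinase tested as one member of a kinome-wide kinase panel.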
Insulin receptor, sequence (P06213 28-758 limits assumed): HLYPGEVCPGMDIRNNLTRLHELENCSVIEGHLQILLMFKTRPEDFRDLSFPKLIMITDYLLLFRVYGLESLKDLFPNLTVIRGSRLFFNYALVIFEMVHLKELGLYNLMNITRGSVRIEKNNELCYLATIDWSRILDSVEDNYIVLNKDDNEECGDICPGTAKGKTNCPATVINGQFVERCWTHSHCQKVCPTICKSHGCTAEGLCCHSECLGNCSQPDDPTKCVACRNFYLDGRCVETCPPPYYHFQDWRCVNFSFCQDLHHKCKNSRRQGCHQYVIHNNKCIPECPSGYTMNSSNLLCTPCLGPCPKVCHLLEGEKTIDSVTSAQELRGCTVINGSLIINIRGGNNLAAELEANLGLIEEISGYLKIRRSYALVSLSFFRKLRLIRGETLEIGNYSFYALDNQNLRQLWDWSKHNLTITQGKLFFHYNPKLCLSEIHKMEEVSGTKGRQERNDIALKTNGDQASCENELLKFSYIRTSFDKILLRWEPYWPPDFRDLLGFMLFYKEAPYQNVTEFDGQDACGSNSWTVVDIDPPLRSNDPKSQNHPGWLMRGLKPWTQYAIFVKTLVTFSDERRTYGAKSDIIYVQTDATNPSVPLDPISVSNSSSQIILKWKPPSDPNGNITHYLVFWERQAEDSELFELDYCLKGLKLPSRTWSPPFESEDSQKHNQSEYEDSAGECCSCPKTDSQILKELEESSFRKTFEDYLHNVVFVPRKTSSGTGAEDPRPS
Insulin receptor, sequence (P06213 763-1382 limits assumed): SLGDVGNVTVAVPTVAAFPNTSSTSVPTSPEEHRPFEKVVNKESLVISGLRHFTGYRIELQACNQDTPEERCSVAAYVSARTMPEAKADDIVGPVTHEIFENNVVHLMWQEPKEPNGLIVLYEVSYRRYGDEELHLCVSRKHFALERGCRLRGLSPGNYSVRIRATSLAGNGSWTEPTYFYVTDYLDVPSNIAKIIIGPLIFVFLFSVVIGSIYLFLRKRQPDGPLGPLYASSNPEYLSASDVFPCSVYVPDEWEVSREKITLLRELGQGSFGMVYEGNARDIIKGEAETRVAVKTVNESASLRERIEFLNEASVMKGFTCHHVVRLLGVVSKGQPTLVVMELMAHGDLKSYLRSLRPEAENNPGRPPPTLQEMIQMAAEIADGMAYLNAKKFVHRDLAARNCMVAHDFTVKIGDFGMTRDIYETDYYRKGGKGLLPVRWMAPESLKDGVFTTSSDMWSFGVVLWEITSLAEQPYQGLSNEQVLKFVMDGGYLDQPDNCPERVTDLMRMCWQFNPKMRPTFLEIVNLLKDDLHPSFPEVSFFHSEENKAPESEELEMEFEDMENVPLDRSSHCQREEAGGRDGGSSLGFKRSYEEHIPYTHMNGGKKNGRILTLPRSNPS
Assay [12] addresses MAP kinase-activated protein kinase 3 (Homo sapiens, UniProt Q16644).
Assay [13] concerns the target Ephrin type-A receptor 2 (Homo sapiens, UniProt P29317).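 Further: EPHA2 tested as one member of a kinome-wide kinase panel.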
For assay [14], the target named is Misshapen-like kinase 1 (Homo sapiens, UniProt Q8N4C8).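 Further: kinome panel screen with MINK as the panel member.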
Misshapen-like kinase 1, sequence (Q8N4C8 whole entry): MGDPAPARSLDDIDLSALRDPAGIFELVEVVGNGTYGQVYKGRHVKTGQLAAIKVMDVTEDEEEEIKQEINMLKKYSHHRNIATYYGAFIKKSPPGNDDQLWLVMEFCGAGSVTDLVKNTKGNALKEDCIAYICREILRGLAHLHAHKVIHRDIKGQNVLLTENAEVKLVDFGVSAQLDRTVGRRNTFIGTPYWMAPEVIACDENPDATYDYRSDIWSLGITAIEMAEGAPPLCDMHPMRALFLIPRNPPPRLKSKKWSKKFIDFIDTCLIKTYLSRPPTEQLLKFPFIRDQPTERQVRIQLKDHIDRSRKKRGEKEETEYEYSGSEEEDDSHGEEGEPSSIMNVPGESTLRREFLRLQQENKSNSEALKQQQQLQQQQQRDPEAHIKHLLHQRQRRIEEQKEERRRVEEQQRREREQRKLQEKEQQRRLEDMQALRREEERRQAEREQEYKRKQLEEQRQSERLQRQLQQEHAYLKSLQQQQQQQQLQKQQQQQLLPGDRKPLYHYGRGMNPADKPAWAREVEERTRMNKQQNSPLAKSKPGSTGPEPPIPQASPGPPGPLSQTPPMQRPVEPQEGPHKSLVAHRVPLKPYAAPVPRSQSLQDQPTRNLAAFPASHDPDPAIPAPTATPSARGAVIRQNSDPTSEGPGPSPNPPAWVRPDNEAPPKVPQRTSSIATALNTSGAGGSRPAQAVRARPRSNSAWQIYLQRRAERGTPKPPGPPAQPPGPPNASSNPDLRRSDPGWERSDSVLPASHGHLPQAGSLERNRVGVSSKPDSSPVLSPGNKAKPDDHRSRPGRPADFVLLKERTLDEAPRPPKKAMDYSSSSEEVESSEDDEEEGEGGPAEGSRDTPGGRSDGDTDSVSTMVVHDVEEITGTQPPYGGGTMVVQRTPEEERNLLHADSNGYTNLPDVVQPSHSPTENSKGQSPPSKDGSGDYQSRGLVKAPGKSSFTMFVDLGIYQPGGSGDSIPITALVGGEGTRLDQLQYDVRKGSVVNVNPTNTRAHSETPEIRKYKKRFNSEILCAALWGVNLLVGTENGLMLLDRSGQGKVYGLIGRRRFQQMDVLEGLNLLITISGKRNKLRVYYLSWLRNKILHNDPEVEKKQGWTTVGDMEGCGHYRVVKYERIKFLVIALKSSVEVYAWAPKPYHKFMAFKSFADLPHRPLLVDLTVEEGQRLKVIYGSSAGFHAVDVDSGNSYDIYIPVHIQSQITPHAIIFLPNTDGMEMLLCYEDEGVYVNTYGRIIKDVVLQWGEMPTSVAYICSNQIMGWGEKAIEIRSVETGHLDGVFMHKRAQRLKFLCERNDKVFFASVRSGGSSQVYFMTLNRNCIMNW
The target of assay [15] is Dual specificity tyrosine-phosphorylation-regulated kinase 4 (Homo sapiens, UniProt Q9NR20).
The target in assay [16] is Calcium/calmodulin-dependent protein kinase type 1 (Homo sapiens, UniProt Q14012).
Calcium/calmodulin-dependent protein kinase type 1, sequence (Q14012 whole entry): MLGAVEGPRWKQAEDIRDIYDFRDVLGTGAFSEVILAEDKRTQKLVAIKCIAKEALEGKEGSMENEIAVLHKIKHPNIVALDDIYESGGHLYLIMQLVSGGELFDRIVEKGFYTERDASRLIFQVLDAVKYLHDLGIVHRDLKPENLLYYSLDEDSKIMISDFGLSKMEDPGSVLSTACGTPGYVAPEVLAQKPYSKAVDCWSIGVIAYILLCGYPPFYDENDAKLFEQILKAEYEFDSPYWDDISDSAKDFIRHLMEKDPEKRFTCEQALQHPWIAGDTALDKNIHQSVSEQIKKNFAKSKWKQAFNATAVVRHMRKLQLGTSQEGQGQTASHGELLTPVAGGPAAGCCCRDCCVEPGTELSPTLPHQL
Assay [17] has as its target Dual specificity protein kinase CLK4 (Homo sapiens, UniProt Q9HAZ1).
Assay [18] concerns the target Serine/threonine-protein kinase MRCK alpha (Homo sapiens, UniProt Q5VT25).

MAP kinase-activated protein kinase 3, sequence (Q16644 whole entry): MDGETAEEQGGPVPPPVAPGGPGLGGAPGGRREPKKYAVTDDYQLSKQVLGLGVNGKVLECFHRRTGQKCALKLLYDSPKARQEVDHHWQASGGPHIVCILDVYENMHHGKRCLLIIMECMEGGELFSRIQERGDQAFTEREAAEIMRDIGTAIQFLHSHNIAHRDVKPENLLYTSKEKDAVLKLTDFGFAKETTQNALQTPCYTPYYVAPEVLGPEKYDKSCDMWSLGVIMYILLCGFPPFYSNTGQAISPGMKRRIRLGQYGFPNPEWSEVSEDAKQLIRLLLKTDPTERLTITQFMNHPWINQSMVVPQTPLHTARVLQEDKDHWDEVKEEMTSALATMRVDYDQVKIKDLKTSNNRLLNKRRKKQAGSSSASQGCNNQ
Dual specificity protein kinase CLK4, sequence (Q9HAZ1 whole entry): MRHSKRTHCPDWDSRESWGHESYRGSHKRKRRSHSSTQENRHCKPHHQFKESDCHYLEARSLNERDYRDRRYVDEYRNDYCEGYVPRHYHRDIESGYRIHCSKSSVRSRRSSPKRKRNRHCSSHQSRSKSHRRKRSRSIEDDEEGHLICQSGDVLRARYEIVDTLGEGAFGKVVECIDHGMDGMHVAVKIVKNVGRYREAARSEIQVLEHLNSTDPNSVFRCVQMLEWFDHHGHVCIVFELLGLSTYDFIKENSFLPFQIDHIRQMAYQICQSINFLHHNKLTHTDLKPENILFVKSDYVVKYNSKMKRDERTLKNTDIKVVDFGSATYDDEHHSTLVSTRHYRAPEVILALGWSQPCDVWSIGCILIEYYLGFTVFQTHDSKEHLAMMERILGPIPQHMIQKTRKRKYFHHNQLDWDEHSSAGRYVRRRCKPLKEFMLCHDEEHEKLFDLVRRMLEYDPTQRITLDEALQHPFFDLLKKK
Phosphorylase b kinase gamma catalytic chain, liver/testis isoform, sequence (P15735 whole entry, canonical isoform): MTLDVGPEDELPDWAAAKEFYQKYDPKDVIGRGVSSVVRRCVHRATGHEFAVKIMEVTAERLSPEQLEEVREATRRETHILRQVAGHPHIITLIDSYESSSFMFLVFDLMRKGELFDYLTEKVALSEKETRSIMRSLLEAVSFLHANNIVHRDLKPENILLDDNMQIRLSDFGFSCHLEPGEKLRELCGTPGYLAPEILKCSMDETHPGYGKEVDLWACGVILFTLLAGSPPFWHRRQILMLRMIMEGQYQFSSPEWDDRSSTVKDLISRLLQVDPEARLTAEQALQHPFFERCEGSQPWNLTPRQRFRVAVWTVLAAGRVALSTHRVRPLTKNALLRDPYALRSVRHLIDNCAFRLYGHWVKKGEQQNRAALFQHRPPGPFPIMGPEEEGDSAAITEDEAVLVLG

Turning to `COc1ccc(C(C[N+](=O)[O-])c2c(C)[nH]n(-c3ccccc3)c2=O)cc1` (stereo not drawn), the results for the IC50 in assay [1] and in assay [2] were 14600 nM (active) and 28100 nM (active), respectively.

With `O=C(COC(=O)c1ccc([N+](=O)[O-])s1)Nc1cccc(S(=O)(=O)/N=C2/CCCCCN2)c1`, the IC50 in assay [3] is > 50000 nM (not active).

With `Oc1c2ccccc2c2c3c(cccc13)N=N2` [SP-600125], the Ki in [4] is > 2000 nM (inactive); in [5], 631 nM (active); in assay [6], > 1260 nM (inactive); in assay [7] it was > 5010 nM (inactive); in [8], 1000 nM (active); in [9], 3.98 nM (active). Besides, the Ki was 1260 nM (active) in [10]; 501 nM (active) in assay [11]; > 10000 nM (inactive) in assay [12]; > 3160 nM (inactive) in assay [13]; 200 nM (active) in assay [14]; > 7940 nM (inactive) in [15]. For the same molecule, the figures for the Ki in assay [16], in assay [17] and in [18] were > 1580 nM (inactive), 63.1 nM (active) and > 10000 nM (inactive), respectively.
